The values that follow come from patent EP2465928A1, “Treatment of Th17-mediated diseases” (Academisch Medisch Centrum bij de Universiteit van Amsterdam, priority 2010, dated 2012).

Type in all cases: cell-based, human
Experiment [1] relates to Malt1. Nature of the experiment: Th17 polarization assay (primed DCs co-cultured with memory CD4+ T cells). To be noted: DCs pre-incubated with z-VRPR-FMK. As to the method: Th17 polarization assay. Memory CD4^+ T cells were isolated as described previously. Human PBMC were isolated from heparinized human peripheral blood by density gradient centrifugation on Lymphoprep (Nycomed), and PBMC were subsequently seperated in monocytes and PBL by density gradient centrifugation on Percoll (Pharmacia). Memory CD4^+ T cells were isolated with CD45R0^+-PE (Dakopatts) and anti-PE-beads (MACS). iDCs were preincubated for 2 h with inhibitors, activated for 16 h with curdlan or heat-killed Candida spp. and subsequently co-cultured with memory CD4^+ T cells as described (20,000 T cells/2000 DCs in the presence of 10 pg/ml Staphylococcus aureus enterotoxin B (Sigma). After 5 days of co-culture, supernatants were harvested and analyzed for IL-17 production by ELISA (Biosource). Cells were further cultured in the presence of 10 U/ml IL-2 (Chiron) and resting cells were restimulated after 12 days with 100 ng/ml PMA (Sigma) and 1 µg/ml ionomycin (Sigma) for 6 h, the last 5 h in the presence of 10 µg/ml brefeldin A (Sigma), and analyzed for intracellular cytokine expression by staining with biotinylated mouse anti-IL-17 (ebio64DE; eBioscience), followed by incubation with streptavidin-PE (BD Pharmingen) and FITC-conjugated mouse anti-IFN-γ (25723.11; BD).

For experiment [2], the system named is Malt1. Put plainly: Quantitative real-time PCR for cytokine mRNAs in stimulated DCs. Particulars: curdlan-stimulated DCs; 75 µM z-VRPR-FMK. The protocol:
(§1) Cells, stimulation, inhibition and RNA interference. This study was performed in accordance with the ethical guidelines of the Academic Medical Center. Immature DCs (iDC, day 6 and 7) were generated as described previously. In short, human blood monocytes were isolated from buffy coats by a Ficoll and a Percoll gradient and or CD14 selection by magnetic beads. Monocytes were differentiated into immature DCs in the presence of IL-4 and GM-CSFAt day 6 the phenotype of the cultured DCs was confirmed by flow cytometric analysis. 100.000 DCs were stimulated with 10 µg/ml curdlan (Sigma), heat-killed Candida spp. (multiplicity of infection (MOI) 10) and 10 ng/ml LPS from Salmonella typhosa (Sigma) in 100-150 µl medium. Dectin-2 triggering was induced by pre-incubating DCs for 2 h at room temperature with 5 µg/ml anti-dectin-2 (MAB3114; R&D Systems), followed by cross-linking on goat-anti-mouse IgG (115-006-0710; Jackson)-coated culture plates. Cells were pre-incubated with blocking antibodies or inhibitor for 2 h with 20 µg/ml anti-dectin-1 (MAB1859; R&D Systems), 20 µg/ml anti-dectin-2 (MAB3114; R&D Systems) or 75 µM z-VRPR-FMK (Malt1 inhibitor [22]; Alexis). DCs were transfected with 25 nM siRNA (SEQ ID NO:5-8) using transfection reagens DF4 (Dharmacon), and used for experiments 72 h after transfection. 'SMARTpool' siRNAs used were: Syk (M-003176-03), CARD9 (M-004400-01), Bcl10 (M-004381-02), Malt1 (M-005936-02), c-Rel (M-004768-01) and non-targeting siRNA (D-001206-13) as a control (Dharmacon). […] PCR amplification was performed with the SYBR green method in an ABI 7900HT sequence detection system (Applied Biosystems).Silencing of expression was verified by real-time PCR and flow cytometry (not shown).
Quantitative real-time PCR. mRNA isolation, cDNA synthesis and PCR amplification with the SYBR green method in an ABI 7500 Fast PCR detection system (Applied Biosystems) were performed as described. Standard conditions according to manufacturer's instructions were used. Specific primers were designed using Primer Express 2.0 (Applied Biosystems; Supplementary Table 1). The Ct value is defined as the number of PCR cycles where the fluorescence signal exceeds the detection threshold value. For each sample, the normalized amount of target mRNA was calculated from the obtained Ct values for both target and GAPDH mRNA with Nt = 2^Ct(GAPDH)-Ct(target) The relative mRNA expression was obtained by setting Nt in curdlan-or LPS-stimulated samples at 1 within one experiment and for each donor.

Experiment [3] relates to Malt1. Put plainly: NF-κB DNA binding in nuclear extracts of stimulated DCs (TransAM NF-κB family kit). Particulars: curdlan-stimulated DCs; 75 µM z-VRPR-FMK, 2 h pre-incubation. The protocol: (§2) Cells, stimulation, inhibition and RNA interference. This study was performed in accordance with the ethical guidelines of the Academic Medical Center. Immature DCs (iDC, day 6 and 7) were generated as described previously. In short, human blood monocytes were isolated from buffy coats by a Ficoll and a Percoll gradient and or CD14 selection by magnetic beads. Monocytes were differentiated into immature DCs in the presence of IL-4 and GM-CSFAt day 6 the phenotype of the cultured DCs was confirmed by flow cytometric analysis. 100.000 DCs were stimulated with 10 µg/ml curdlan (Sigma), heat-killed Candida spp. (multiplicity of infection (MOI) 10) and 10 ng/ml LPS from Salmonella typhosa (Sigma) in 100-150 µl medium. Dectin-2 triggering was induced by pre-incubating DCs for 2 h at room temperature with 5 µg/ml anti-dectin-2 (MAB3114; R&D Systems), followed by cross-linking on goat-anti-mouse IgG (115-006-0710; Jackson)-coated culture plates. Cells were pre-incubated with blocking antibodies or inhibitor for 2 h with 20 µg/ml anti-dectin-1 (MAB1859; R&D Systems), 20 µg/ml anti-dectin-2 (MAB3114; R&D Systems) or 75 µM z-VRPR-FMK (Malt1 inhibitor [22]; Alexis). […]
NF-κB DNA binding. Nuclear extracts of DCs were prepared using NucBuster protein extraction kit (Novagen) and NF-κB DNA binding determined using TransAM NF-κB family kit (Active Motif).

For experiment [4], the system named is Malt1. Put plainly: Immunofluorescence staining of nuclear translocation of NF-κB subunits in DCs. To be noted: curdlan-stimulated DCs; 75 µM z-VRPR-FMK; data not shown. As to the method:
as §2

Experiment [5] relates to Malt1. Nature of the experiment: Cytokine production by ELISA in supernatants of stimulated DCs. To be noted: 75 µM z-VRPR-FMK. The protocol: as §1
Cytokine production. Cell culture supernatants were harvested after 28 h of stimulation and concentrations of IL-1β, IL-23, IL-6 (Invitrogen) and IL-12p70 (eBioscience) were determined by ELISA.

[6] abbreviates: more strongly than dectin-1 inhibition.
[7] abbreviates: DCs after C. albicans stimulation.
Setting [8] is: DCs stimulated with C. albicans strain CBS8781 and CBS2712.
The mark [9] stands for this setting: DCs stimulated with C. lusitaniae and C. nivariensis.

For “z-Valine-Arginine-Proline-DL-Arginine-FMK [z-VRPR-FMK]”, the “ability of DCs primed by the different Candida spp. to promote IL-17 expression in CD4+ T cells” value in the experiment on Malt1 [1] (C. albicans CBS8781, CBS2712, C. lusitaniae, C. nivariensis, intracellular IL-17 day 12) is “completely blocked”. Further, the “capacity of curdlan-primed DCs to induce IL-17 expression in CD4+ T cells” value in the experiment on Malt1 [1] (IL-17 ELISA day 5, intracellular IL-17 day 12) was “markedly reduced”. In the experiment with Malt1 [2], the “IL-1β mRNA levels” value was “markedly reduced”, the “IL-6 mRNA production” value was “slightly enhanced”, the “IL-12p35 mRNA production” value is reported as “slightly enhanced” and the “IL-12p40 mRNA production” value is reported as “neither dependent on Malt1 expression nor activation”. The “IL-23p19 mRNA levels” value in the experiment on Malt1 [2] was “markedly reduced”. In addition, in the experiment with Malt1 [3], the “activation of c-Rel” value is given as “completely abolished” and the “activation of the other NF-κB subunits” value is “without affecting”. The “nuclear translocation of c-Rel” value in the experiment with Malt1 [4] is on record as “specifically interferes”. Besides, in the experiment on Malt1 [5] (setting [6]), the “C. albicans CBS2712-induced IL-1β expression” value is recorded as “decreased” and the “C. albicans CBS2712-induced IL-23 expression” value is reported as “decreased”. In the experiment on Malt1 [5] (setting [7]), the IL-12p70 production entry was “unaffected” and the “expression of IL-6” value is “slightly upregulated”. Also, in the experiment with Malt1 [5] (setting [8]), the “expression of IL-1β: requirement for Malt1 activation” value is “required” and the “expression of IL-23: requirement for Malt1 activation” value is listed as “required”. In addition, in the experiment on Malt1 [5] (setting [9]), the IL-1β production result is “largely dependent on Malt1 protease activity”, the IL-6 expression entry was “slightly enhanced”, the IL-12p70 result was “unaffected” and the IL-23 production entry is “largely dependent on Malt1 protease activity”. Further, in the experiment with Malt1 [5] (curdlan-stimulated DCs, 28 h), the IL-1β protein expression entry is recorded as “severely reduced”, the IL-6 expression entry is “only slightly enhancing”, the IL-12p70 expression entry is reported as “without affecting” and the IL-23 protein expression entry is given as “severely reduced”.
